Assay results taken from patent publication US8829026B2, “Sulfamoyl benzoic acid heterobicyclic derivatives as TRPM8 antagonists” (RaQualia Pharma Inc., priority 2010, dated 2014).

Biological target: T1, human TRPM8 (Homo sapiens, UniProt Q7Z2W7)
T1 construct: expressed in transfected cells
Assay: Menthol-induced Ca2+ influx in HEK293 cells stably expressing human TRPM8
Format: cell-based
Conditions: 30 microM menthol-induced Ca2+ influx, HEK293 cells stably expressing human TRPM8, 11-point dose-response
Procedure: Measurement of the Menthol-Induced Ca^2+ Influx in HEK293 Cells Stably Expressing Human TRPM8
A cell-based Ca^2+ influx assay using HEK293 cells stably expressing human TRPM8 was used to identify the activity of compounds.
HEK293 cells stably expressing human TRPM8 were grown in T175 flasks at 37° C. in a 5% CO2 humidified incubator to about 80% confluence. Media composition consisted of Dulbecco's Modified Eagle Medium (high glucose), 10% fetal calf serum (FCS), 100 units/ml Penicillin, 100 microg/ml Streptomycin and 600 microg/ml Geneticine. At 24 hours prior to assay, cells were seeded in poly-D-lysine coated 384-well plates (BD FALCON) at a density of 30,000 cells per well in culture medium and grown overnight in 5% CO2 at 37° C. On the assay day, growth media was removed and cells were loaded with 0.5 microM Fluo4-AM (Molecular Probes) and 0.005% Pluronic F-127 dissolved in assay buffer (Hank's balanced salt solution (HBSS), 19.4 mM HEPES pH7.4, 2.5 mM Probenecid) for 1 hour at room temperature. After washing with assay buffer, the cells were preincubated with various concentrations of the compounds for 5 min. The changes in intracellular calcium concentration by addition of 30 microM menthol were monitored by the cell imaging technology by Hamamatsu Photonics's Functional Drug Screening System (FDSS).
The IC50 values for compounds of the present invention were determined from 11-point dose-response studies. Curves were generated using the average of duplicate wells for each data point. Finally, the IC50 values are calculated with the best-fit dose curve determined by XLfit (ID Business Solutions Ltd.).

T1 sequence (Q7Z2W7 whole entry): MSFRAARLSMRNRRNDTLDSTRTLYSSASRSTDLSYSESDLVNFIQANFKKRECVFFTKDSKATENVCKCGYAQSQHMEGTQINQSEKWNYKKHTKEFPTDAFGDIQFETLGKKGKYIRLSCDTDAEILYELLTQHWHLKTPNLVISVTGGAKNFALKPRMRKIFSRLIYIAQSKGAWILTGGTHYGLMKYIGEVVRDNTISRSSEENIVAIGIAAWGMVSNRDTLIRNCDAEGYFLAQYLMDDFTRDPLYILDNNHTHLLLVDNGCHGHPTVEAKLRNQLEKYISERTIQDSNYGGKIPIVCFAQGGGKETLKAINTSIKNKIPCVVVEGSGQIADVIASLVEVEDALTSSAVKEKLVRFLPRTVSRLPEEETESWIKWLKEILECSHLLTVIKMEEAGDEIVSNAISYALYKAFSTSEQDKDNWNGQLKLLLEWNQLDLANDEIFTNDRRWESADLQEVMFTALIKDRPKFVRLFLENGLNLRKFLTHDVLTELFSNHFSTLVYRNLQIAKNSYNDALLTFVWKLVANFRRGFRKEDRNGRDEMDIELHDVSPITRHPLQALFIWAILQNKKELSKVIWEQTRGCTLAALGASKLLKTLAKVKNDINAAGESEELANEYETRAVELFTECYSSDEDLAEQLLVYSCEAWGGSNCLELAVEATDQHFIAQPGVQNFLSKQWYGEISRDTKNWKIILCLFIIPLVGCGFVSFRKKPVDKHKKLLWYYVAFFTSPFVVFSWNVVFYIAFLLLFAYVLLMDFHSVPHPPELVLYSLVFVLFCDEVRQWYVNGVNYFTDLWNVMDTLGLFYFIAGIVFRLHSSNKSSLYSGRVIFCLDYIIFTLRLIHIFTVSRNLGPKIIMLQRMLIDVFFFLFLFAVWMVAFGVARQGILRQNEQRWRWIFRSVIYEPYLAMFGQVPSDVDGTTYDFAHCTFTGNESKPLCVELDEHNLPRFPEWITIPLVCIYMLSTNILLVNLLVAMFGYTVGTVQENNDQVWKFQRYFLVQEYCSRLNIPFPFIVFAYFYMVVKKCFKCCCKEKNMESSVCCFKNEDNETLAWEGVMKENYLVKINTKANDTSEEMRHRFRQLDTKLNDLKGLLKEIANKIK

Question: How did the IC50 turn out when Cn1ncc2cc(CN(c3ncc(C(F)(F)F)cc3Cl)S(=O)(=O)c3ccc(C(=O)O)cc3)ccc21 [Example 3, 4-(N-(3-Chloro-5-(trifluoromethyl)pyridin-2-yl)-N-((1-methyl-1H-indazol-5-yl)methyl)sulfamoyl)benzoic acid] was run?
Answer: The IC50 was under 1 µM.

Question: CCc1cc(C(=O)O)ccc1S(=O)(=O)N(Cc1ccc2c(cnn2C)c1)c1ncc(C(F)(F)F)cc1Cl [Example 4, 4-(N-(3-Chloro-5-(trifluoromethyl)pyridin-2-yl)-N-((1-methyl-1H-indazol-5-yl)methyl)sulfamoyl)-3-ethylbenzoic acid] was tested. Which IC50 did it give?
Answer: Its IC50 is under 1 µM.

Question: For O=C(O)c1ccc(S(=O)(=O)N(Cc2ccc3occc3c2)c2ncc(Cl)cc2Cl)cc1 [Example 5, 4-(N-(Benzofuran-5-ylmethyl)-N-(3,5-dichloropyridin-2-yl)sulfamoyl)benzoic acid], which IC50 is on record?
Answer: The IC50 was under 1 µM.

Question: Cn1ccc2cc(CN(c3ncc(C(F)(F)F)cc3Cl)S(=O)(=O)c3ccc(C(=O)O)cc3)ccc21 [Example 6, 4-(N-(3-Chloro-5-(trifluoromethyl)pyridin-2-yl)-N-((1-methyl-1H-indol-5-yl)methyl)sulfamoyl)benzoic acid] was tested. Which IC50 did it give?
Answer: Its IC50 is under 1 µM.

Question: Cn1ccc2cc(CN(c3ncc(Cl)cc3Cl)S(=O)(=O)c3ccc(C(=O)O)cc3)ccc21 [Example 7, 4-(N-(3,5-Dichloropyridin-2-yl)-N-((1-methyl-1H-indol-5-yl)methyl)sulfamoyl)benzoic acid] was tested. Which IC50 did it give?
Answer: The IC50 was under 1 µM.

Question: Cn1ccc2cc(CN(c3ncc(C(F)(F)F)cc3Cl)S(=O)(=O)c3ccc(C(=O)O)cc3Cl)ccc21 [Example 8, 3-Chloro-4-(N-(3-chloro-5-(trifluoromethyl)pyridin-2-yl)-N-((1-methyl-1H-indol-5-yl)methyl)sulfamoyl)benzoic acid] was tested. Which IC50 did it give?
Answer: The IC50 was under 1 µM.

Question: Cn1ccc2cc(CN(c3ncc(Cl)cc3Cl)S(=O)(=O)c3ccc(C(=O)O)cc3Cl)ccc21 [Example 9, 3-Chloro-4-(N-(3,5-dichloropyridin-2-yl)-N-((1-methyl-1H-indol-5-yl)methyl)sulfamoyl)benzoic acid] was tested. Which IC50 did it give?
Answer: The IC50 was under 1 µM.

Question: For O=C(O)c1ccc(S(=O)(=O)N(Cc2ccc3ccoc3c2)c2ncc(Cl)cc2Cl)cc1 [Example 10, 4-(N-(Benzofuran-6-ylmethyl)-N-(3,5-dichloropyridin-2-yl)sulfamoyl)benzoic acid], which IC50 is on record?
Answer: Its IC50 is under 1 µM.

Question: Cc1cc(C(=O)O)ccc1S(=O)(=O)N(Cc1ccc2c(ccn2C)c1)c1ncc(C(F)(F)F)cc1Cl [Example 11, 4-(N-(3-Chloro-5-(trifluoromethyl)pyridin-2-yl)-N-((1-methyl-1H-indol-5-yl)methyl)sulfamoyl)-3-methylbenzoic acid] was tested. Which IC50 did it give?
Answer: Its IC50 is under 1 µM.

Question: With Cc1cc(C(=O)O)ccc1S(=O)(=O)N(Cc1ccc2c(ccn2C)c1)c1ncc(Cl)cc1Cl [Example 12, 4-(N-(3,5-Dichloropyridin-2-yl)-N-((1-methyl-1H-indol-5-yl)methyl)sulfamoyl)-3-methylbenzoic acid] as the compound, how does the IC50 read?
Answer: Its IC50 is under 1 µM.

Question: CCn1cc2cc(CN(c3ncc(C(F)(F)F)cc3Cl)S(=O)(=O)c3ccc(C(=O)O)cc3)ccc2n1 [Example 13, 4-(N-(3-Chloro-5-(trifluoromethyl)pyridin-2-yl)-N-((2-ethyl-2H-indazol-5-yl)methyl)sulfamoyl)benzoic acid] was tested. Which IC50 did it give?
Answer: Its IC50 is under 1 µM.

Question: How did the IC50 turn out when CCn1ncc2cc(CN(c3ncc(C(F)(F)F)cc3Cl)S(=O)(=O)c3ccc(C(=O)O)cc3Cl)ccc21 [Example 14, 3-Chloro-4-(N-(3-chloro-5-(trifluoromethyl)pyridin-2-yl)-N-((1-ethyl-1H-indazol-5-yl)methyl)sulfamoyl)benzoic acid] was run?
Answer: Its IC50 is under 1 µM.

Question: Which IC50 does the source give for Cn1cc2cc(CN(c3ncc(C(F)(F)F)cc3Cl)S(=O)(=O)c3ccc(C(=O)O)cc3)ccc2n1 [Example 16, 4-(N-(3-Chloro-5-(trifluoromethyl)pyridin-2-yl)-N-((2-methyl-2H-indazol-5-yl)methyl)sulfamoyl)benzoic acid] here?
Answer: The IC50 was 1 to 10 µM.

Question: Which IC50 does the source give for Cn1ncc2ccc(CN(c3ncc(C(F)(F)F)cc3Cl)S(=O)(=O)c3ccc(C(=O)O)cc3)cc21 [Example 17, 4-(N-(3-Chloro-5-(trifluoromethyl)pyridin-2-yl)-N-((1-methyl-1H-indazol-6-yl)methyl)sulfamoyl)benzoic acid] here?
Answer: The IC50 was under 1 µM.
